Measurements from PMC3173978, “Kinetic Characterisation of Phosphofructokinase Purified from Setaria cervi: A Bovine Filarial Parasite” (Enzyme Research, 2011).

Tests used:
[1] = molecular target: T1, S. cervi PFK (phosphofructokinase); experiment: coupled assay (aldolase/TPI/GDH, NADH oxidation at […] nm), Lineweaver-Burk; assay type: biochemical, Setaria cervi; conditions: competitive vs F-6-P, 0.1 mM ATP, 3.3 mM Mg2+, Tris-HCl pH 8.0
T1 construct: native enzyme purified to electrophoretic homogeneity from adult female worms (from buffalo peritoneal folds); subunit mass 90 kDa

[2] = tested on: T1, S. cervi PFK (phosphofructokinase); experiment: as above; assay type: biochemical, Setaria cervi; conditions: 50 and 100 μM ATP, 3.3 mM Mg2+, pH 8.0

Compound: O=P(O)(O)OC[C@H]1OC(O)(COP(=O)(O)O)[C@@H](O)[C@@H]1O (stereo partly drawn) [FDP, D-fructose-1,6-diphosphate]
- Ki ([1]; aldolase in coupling system acts on FDP): 0.18 µM

Compound: O=P(O)(O)OC[C@H]1OC(O)(CO)[C@@H](O)[C@@H]1O (stereo partly drawn) [F-6-P, D-fructose-6-phosphate]
- Km [2]: 1050 µM

Compound: C=C(OP(=O)(O)O)C(=O)O [PEP, phosphoenolpyruvate]
- Ki [1]: 800 µM
